Columns and labels:
CYP1A2 [1] = assay: CYP selective diagnostic inhibition studies in HLM, furafylline; assay type: in vitro ADME, human; settings: furafylline 10 µmol/L
Procedure: (§1) Reactions were carried out in triplicate in 96 well plates. Each reaction was measured at 2 time points, that is at 0 and 30 minutes. […] Furafylline, KTZ, ticlopidine, and quinidine were used as diagnostic inhibitors for CYP 1A2, 3A4/5, 2C19 and 2D6, respectively. The reactions were initiated by addition of NADPH after a pre‐incubation of 5 minutes at 37°C. All reactions were terminated by the addition of 150 µL ice‐cold ACN. Internal standard (0.2 µmol/L DPZ) was added to ACN prior to termination of the assay. This was followed by centrifugation at 4500 g for 20 minutes. An aliquot (50 µL) supernatant was collected and 5 µL was injected and analyzed by liquid chromatography/tandem mass spectrometry (LC/MS/MS). The percent effect of each inhibitor was the estimated contribution of the inhibited CYP calculated using the relationship below: %contribution=amount remaining with inhibitor‐amount remaining without inhibitor/amount remaining without inhibitor×100.

[2] = cited from earlier work
HLM [3] = assay: Enzyme kinetics of hydroxylated metabolites formation; assay type: in vitro ADME, human
Procedure: The reactions were carried out in duplicate at each time point. Incubation conditions used for the determination of K M and V max were optimized for linearity with respect to time and protein concentrations. […] Metabolites were analyzed by LC‐MS/MS as described below. The K M and V max values of each marker substrate were determined using nonlinear least squares regression analysis in GraFit software (version 3.0, Erithacus Software Limited) and SigmaPlot Enzyme Kinetics Module for Windows 7.0 (SPSS, Inc). […]

CYP1A2 [4] = target: T1, CYP1A2 (Homo sapiens, UniProt P05177); assay: as above; assay type: in vitro ADME; design: purchased CYPEX CYP001; host or cells: Escherichia coli; settings: CYP1A2, formation of cis‐4‐OH‐PZQ
T1 sequence (P05177 1-516): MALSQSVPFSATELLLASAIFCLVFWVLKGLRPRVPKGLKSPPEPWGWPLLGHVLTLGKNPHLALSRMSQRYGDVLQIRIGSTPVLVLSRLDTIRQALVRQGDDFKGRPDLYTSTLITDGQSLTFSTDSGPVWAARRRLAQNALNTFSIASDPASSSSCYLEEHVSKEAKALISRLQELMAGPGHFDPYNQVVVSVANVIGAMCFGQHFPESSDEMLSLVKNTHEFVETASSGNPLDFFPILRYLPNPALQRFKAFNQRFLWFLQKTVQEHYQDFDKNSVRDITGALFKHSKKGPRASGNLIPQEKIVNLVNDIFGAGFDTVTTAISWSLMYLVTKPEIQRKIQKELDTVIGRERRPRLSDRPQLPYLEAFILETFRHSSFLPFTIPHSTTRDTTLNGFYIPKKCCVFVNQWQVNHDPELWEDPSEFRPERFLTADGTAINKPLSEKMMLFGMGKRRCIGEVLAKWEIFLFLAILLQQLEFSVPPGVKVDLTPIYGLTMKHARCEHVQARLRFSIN
Procedure: (§2) The reactions were carried out in duplicate at each time point. Incubation conditions used for the determination of K M and V max were optimized for linearity with respect to time and protein concentrations. […] Metabolites were analyzed by LC‐MS/MS as described below. The K M and V max values of each marker substrate were determined using nonlinear least squares regression analysis in GraFit software (version 3.0, Erithacus Software Limited) and SigmaPlot Enzyme Kinetics Module for Windows 7.0 (SPSS, Inc).
(§3) The well‐stirred model was used to estimate the hepatic clearance (CLH) due to metabolism.

CYP2D6 = assay: CYP selective diagnostic inhibition studies in HLM, quinidine; assay type: in vitro ADME, human; settings: quinidine 10 µmol/L
Procedure: as §1

CYP3A4/5 = assay: CYP selective diagnostic inhibition studies in HLM, ketoconazole; assay type: in vitro ADME, human; settings: ketoconazole 10 µmol/L
Procedure: as §1

HLM [5] = assay: Intrinsic clearance, substrate depletion approach; assay type: in vitro ADME, human; settings: HLM, substrate depletion, well‐stirred model
Procedure: The generic conditions were previously described by Masimirembwa and co‐workers. ^24 , ^25 Each reaction mixture consisted of substrate incubated with appropriate enzyme, substrate, and NADPH in potassium phosphate buffer pH 7.4 in a final volume of 200 µL. The substrate was diluted to 40% ACN so that the percent organic component in the final solution was maintained at 1%. The reactions were quenched with 3 volumes of stop solution containing ACN and 0.8% formic acid at 0, 5, 10, 20, 30, 40, and 60 minutes. This was followed by centrifugation at 4500 g for 20 minutes. An aliquot (50 µL) supernatant was collected and diluted (1:1) in water prior to LC‐MS/MS analysis.
Each reaction was monitored over 7 time points.
as §3

CYP2C19 [6] = target: CYP2C19 (Homo sapiens, UniProt P33261); assay: Enzyme kinetics of hydroxylated metabolites formation; assay type: in vitro ADME; design: purchased CYPEX CYP008; host or cells: Escherichia coli; settings: CYP2C19, formation of cis‐4‐OH‐PZQ
Chain of CYP2C19 (Homo sapiens, UniProt P33261) (P33261 whole entry): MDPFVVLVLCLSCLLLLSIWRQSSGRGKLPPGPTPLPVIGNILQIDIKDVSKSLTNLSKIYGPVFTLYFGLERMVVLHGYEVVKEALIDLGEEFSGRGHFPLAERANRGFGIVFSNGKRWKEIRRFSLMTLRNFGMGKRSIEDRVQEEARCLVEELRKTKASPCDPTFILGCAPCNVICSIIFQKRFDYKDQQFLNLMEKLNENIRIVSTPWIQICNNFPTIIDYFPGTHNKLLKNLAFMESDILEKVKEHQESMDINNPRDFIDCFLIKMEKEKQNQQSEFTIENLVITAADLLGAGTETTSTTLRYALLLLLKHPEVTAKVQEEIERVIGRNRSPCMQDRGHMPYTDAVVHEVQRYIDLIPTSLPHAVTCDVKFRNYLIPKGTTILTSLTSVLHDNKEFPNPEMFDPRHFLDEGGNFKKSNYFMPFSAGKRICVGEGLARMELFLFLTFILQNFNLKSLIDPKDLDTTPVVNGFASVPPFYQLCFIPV
Procedure: as §2, §3

[7] = cited from earlier work; remark: listed apart in the source
[8] = Simcyp prediction of total hepatic clearance; design: species or system human
Procedure: The clearance of the incubation mixture was expressed as μL/min/pmol for rCYP.
as §3

CYP2C19 [9] = assay: CYP selective diagnostic inhibition studies in HLM, ticlopidine; assay type: in vitro ADME, human; settings: ticlopidine 10 µmol/L
Procedure: as §1

[10] = cited from earlier work; for Increase of exposure with KTZ: PZQ metabolism inhibited by KTZ

Row | Structure (SMILES) | Contribution of CYP1A2 (CYP1A2 [1]) [%] | Oral dose eliminated renally (unchanged drug and metabolites) [2] | Systemic bioavailability [2] [%] | Increase in bioavailability ([2]; co‐administration with cimetidine) [%] | Drug excreted within 24 hours ([2]; in man) | K M [SD] (HLM [3]; formation of X‐OH‐PZQ) | V max [SD] (HLM [3]; formation of X‐OH‐PZQ) | K M [SD] (HLM [3]; formation of cis‐4‐OH‐PZQ) | V max [SD] (HLM [3]; formation of cis‐4‐OH‐PZQ) | CLuH,int (CYP1A2 [4]) [mL/min/kg] | Contribution of CYP2D6 (CYP2D6) [%] | Contribution of CYP3A4/5 (CYP3A4/5) [%] | Predicted CLH (HLM [5]) [mL/min/kg] | CLuH,int (CYP2C19 [6]) [mL/min/kg] | Fraction unbound in plasma (fu) [7] | Predicted total CLH (Simcyp) ([8]; metabolite formation assay) [mL/min/kg] | Predicted total CLH (Simcyp) ([8]; substrate depletion assay) [mL/min/kg] | Contribution of CYP2C19 (CYP2C19 [9]) [%] | Increase of exposure with KTZ [10] [%] | Amount relative to cis 4‐OH PZQ in vivo ([10]; ref NLeya et al (19)) [times]
1 | O=C(C1CCCCC1)N1CC(=O)N2CCc3ccccc3C2C1 (stereo not drawn) [PZQ, praziquantel] | −54 | More than 80% | < 20 | 100 | more than 80% | 118.6 [35.79] µmol/L | 11.10 [2.074] nmol/min/mg protein | 32.60 [3.982] µmol/L | 0.5978 [0.028] nmol/min/mg protein | 6.870 | 35 | 97 | 11.70 | 4.600 | 0.2 | 11.44 | 3.656 | 127 |  | 
2 | O=C1CN(C(=O)[C@H]2CC[C@@H](O)CC2)CC2c3ccccc3CCN12 (stereo partly drawn) [cis‐4‐OH PZQ, cis‐4‐hydroxy‐PZQ] |  |  |  |  |  |  |  |  |  |  |  |  |  |  |  |  |  |  | 57 | 
3 | O=C(C1CCC(O)CC1)N1CC(=O)N2CCc3ccccc3C2C1 (stereo not drawn) [trans‐4‐OH PZQ, trans‐4‐hydroxy‐PZQ] |  |  |  |  |  |  |  |  |  |  |  |  |  |  |  |  |  |  | 67 | 30

Reference: article PMC7376644 (Pharmacology Research & Perspectives, 2020)
